The values below come from publication PMC8484140 (Targeted Oncology, 2021).

Structures are written as SMILES.

A short description of data set [1]: Pharmacokinetics of exemestane, additional 21 patients. The class given is in vivo. Particulars: female, human, plasma, oral.
In data set [2] the test system is advanced breast cancer. As to conditions: in combination with exemestane; cited from earlier work.

Take `C=C1C[C@@H]2[C@H](CC[C@]3(C)C(=O)CC[C@@H]23)[C@@]2(C)C=CC(=O)C=C12` [Exemestane]: in data set [1], the Tmax was determined as 3.95 h and the half-life was 5.68 h. In addition, in data set [1] (25 mg), the AUC(0-t) amounted to 54.6 ng·h/mL, the Cmax turned out to be 17 ng/mL, the Tmax came to 1.02 h and the half-life was 6.24 h.

For the compound `Nc1cc(F)ccc1NC(=O)c1ccc(CNC(=O)/C=C/c2cccnc2)cc1` [chidamide], in data set [2], the “Median PFS” value is 7.4 months; the “Neutropenia, patients” value is given as 51%; the “Thrombocytopenia, patients” value was 28%.

By Tmax is commonly meant the time at which the peak concentration occurs. Usually half-life stands for the time needed for the level to fall by half in the phase considered. Broadly, the AUC(0-t) is the area under the concentration-time curve up to a stated or last time point. Read a low AUC(0-t) as less exposure. By Cmax is commonly meant the maximum level reached in the sampled fluid or tissue.
